Measured values reported in patent US4049809A, “Solution of a oxazepine for oral or parenteral administration” (priority 1976, dated 1977).
Values after ≈ are worked out from the molar mass of the structure shown. Read-outs that look alike come from different tables or passages of the source. Values belong to the compound of their own block, whether it stands above or below them.

Legend:
[1] = Solubility and stability in water and near neutral/basic liquids; type: physicochemical
[2] = Crystallization/solubility behaviour with and without Polysorbate 80; type: physicochemical
[3] = Second stability study, parenteral solution 15 mg/ml; type: physicochemical; conditions: 70% propylene glycol, pH 6.0
Description: (§1) The favorable stability of the oral and parenteral solutions of this invention have been established in numerous tests. The criterion of stability being the lack of precipitation of the hydroylsis product 2-chloro-dibenz[b,f][1,4]oxazepin-11(1OH)-one. […]

[4] = type: physicochemical; conditions: 10 mg/ml, pH 6.0, 15 months
Description: as §1

[5] = Third stability study, parenteral solution 20 mg/ml; type: physicochemical; conditions: 20 mg/ml parenteral solution
Procedure: The favorable stability of the oral and parenteral solutions of this invention have been established in numerous tests. The criterion of stability being the lack of precipitation of the hydroylsis product 2-chloro-dibenz[b,f][1,4]oxazepin-11(1OH)-one. […] Three such studies follow:
In the third test a parenteral solution of the active ingredient at a concentration of 20 mg/ml was prepared as described in the second stability study.

[6] = Stability of solutions: lack of precipitation of the hydrolysis product; type: physicochemical; conditions: in the new solutions; below this concentration
Description: as §1

[7] = Toxicity of hydrolysis product (statement)

Solubility in liquids having a basic or near neutral pH ([1]; basic or near neutral pH): low solubility
Solubility in water [1]: low solubility
Effect of Polysorbate 80 on solubility level in 70% aqueous propylene glycol ([2]; 70% aqueous propylene glycol with Polysorbate 80): raises the solubility level
Effect of Polysorbate 80 on crystallization during intramuscular administration ([2]; 70% aqueous propylene glycol with Polysorbate 80 (about 2% to about 10%)): eliminates the crystallization
Crystallization when parenterally administered to body fluids ([2]; body fluids, pH about 7.0): exhibits a tendency to crystallize
Crystallization from neutral or basic media ([2]; neutral or basic media): crystallizes from neutral or basic media
Precipitation on dilution with non-acidic foods or beverages ([2]; oral concentrate without polysorbate 80): precipitates on dilution
Hydrolysis Product ([3]; 42° C, 1 Month): 124 µg/mL
Potency ([3]; 42° C, 1 Month): 16.0 mg/mL (≈ 48.8 mM)
Hydrolysis Product ([3]; 42° C, 2 Months): 192 µg/mL
Potency ([3]; 42° C, 2 Months): 14.5 mg/mL (≈ 44.2 mM)
Hydrolysis Product ([3]; 42° C, 4 Months): 340 µg/mL
Potency ([3]; 42° C, 4 Months): 15.5 mg/mL (≈ 47.3 mM)
Hydrolysis Product ([3]; 56° C, 1 Month): 320 µg/mL
Potency ([3]; 56° C, 1 Month): 16.0 mg/mL (≈ 48.8 mM)
Hydrolysis Product ([3]; 56° C, 2 Months): 580 µg/mL
Potency ([3]; 56° C, 2 Months): 14.5 mg/mL (≈ 44.2 mM)
Hydrolysis Product ([3]; 56° C, 2 Weeks): 163 µg/mL
Potency ([3]; 56° C, 2 Weeks): 15.3 mg/mL (≈ 46.7 mM)
Hydrolysis Product ([3]; 70° C, 1 Week): 370 µg/mL
Physical Appearance ([3]; 70° C, 1 Week): Precipitate
Potency ([3]; 70° C, 1 Week): 15.0 mg/mL (≈ 45.8 mM)
Hydrolysis Product ([3]; 70° C, 2 Weeks): 467 µg/mL
Potency ([3]; 70° C, 2 Weeks): 14.8 mg/mL (≈ 45.1 mM)
Hydrolysis Product ([3]; Fresh): 26 µg/mL
Physical Appearance ([3]; Fresh): Clear
Potency ([3]; Fresh): 16.0 mg/mL (≈ 48.8 mM)
Hydrolysis Product ([3]; Room Temp., 2 Months): 55 µg/mL
Potency ([3]; Room Temp., 2 Months): 15.4 mg/mL (≈ 47 mM)
Hydrolysis Product ([3]; Room Temp., 4 Months): 67 µg/mL
Potency ([3]; Room Temp., 4 Months): 15.6 mg/mL (≈ 47.6 mM)
Hydrolysis Product ([3]; Room Temp., 6 Months): 94 µg/mL
Potency ([3]; Room Temp., 6 Months): 15.6 mg/mL (≈ 47.6 mM)
Hydrolysis Product ([3]; Room Temp., 11 Months): 142 µg/mL
Potency ([3]; Room Temp., 11 Months): 15.4 mg/mL (≈ 47 mM)
Hydrolysis Product ([3]; Room Temp., 13 Months): 144 µg/mL
Potency ([3]; Room Temp., 13 Months): 15.1 mg/mL (≈ 46.1 mM)
Hydrolysis Product ([3]; Room Temp., 18 Months): 260 µg/mL
Potency ([3]; Room Temp., 18 Months): 14.3 mg/mL (≈ 43.6 mM)
Hydrolysis Product ([4]; 50% propylene glycol): 120 µg/mL
Hydrolysis Product ([4]; 60% propylene glycol): 110 µg/mL
Hydrolysis Product ([4]; 70% propylene glycol): 100 µg/mL
Hydrolysis Product ([5]; 42° C, 1 Month): 146 µg/mL
Potency ([5]; 42° C, 1 Month): 21.8 mg/mL (≈ 66.5 mM)
Hydrolysis Product ([5]; 42° C, 2 Months): 232 µg/mL
Potency ([5]; 42° C, 2 Months): 20.5 mg/mL (≈ 62.5 mM)
Hydrolysis Product ([5]; 42° C, 4 Months): 436 µg/mL
Potency ([5]; 42° C, 4 Months): 20.2 mg/mL (≈ 61.6 mM)
Hydrolysis Product ([5]; 56° C, 1 Month): 374 µg/mL
Potency ([5]; 56° C, 1 Month): 20.6 mg/mL (≈ 62.8 mM)
Hydrolysis Product ([5]; 56° C, 2 Months): 732 µg/mL
Potency ([5]; 56° C, 2 Months): 19.4 mg/mL (≈ 59.2 mM)
Hydrolysis Product ([5]; 56° C, 2 Weeks): 185 µg/mL
Potency ([5]; 56° C, 2 Weeks): 21.0 mg/mL (≈ 64.1 mM)
Hydrolysis Product ([5]; 70° C, 1 Week): 480 µg/mL
Physical Appearance ([5]; 70° C, 1 Week): Precipitate
Potency ([5]; 70° C, 1 Week): 20.7 mg/mL (≈ 63.1 mM)
Hydrolysis Product ([5]; 70° C, 2 Weeks): 623 µg/mL
Potency ([5]; 70° C, 2 Weeks): 20.6 mg/mL (≈ 62.8 mM)
Hydrolysis Product ([5]; Fresh): 33.0 µg/mL
Physical Appearance ([5]; Fresh): Clear
Potency ([5]; Fresh): 21.6 mg/mL (≈ 65.9 mM)
Hydrolysis Product ([5]; Room Temp., 2 Months): 62.7 µg/mL
Potency ([5]; Room Temp., 2 Months): 21.1 mg/mL (≈ 64.4 mM)
Hydrolysis Product ([5]; Room Temp., 4 Months): 78 µg/mL
Potency ([5]; Room Temp., 4 Months): 22.3 mg/mL (≈ 68 mM)
Hydrolysis Product ([5]; Room Temp., 6 Months): 116 µg/mL
Potency ([5]; Room Temp., 6 Months): 20.8 mg/mL (≈ 63.5 mM)
Hydrolysis Product ([5]; Room Temp., 11 Months): 160 µg/mL
Potency ([5]; Room Temp., 11 Months): 20.7 mg/mL (≈ 63.1 mM)
Hydrolysis Product ([5]; Room Temp., 13 Months): 184 µg/mL
Potency ([5]; Room Temp., 13 Months): 20.6 mg/mL (≈ 62.8 mM)
Hydrolysis Product ([5]; Room Temp., 18 Months): 340 µg/mL
Potency ([5]; Room Temp., 18 Months): 20.5 mg/mL (≈ 62.5 mM)
Compound: CN1CCN(C2=Nc3ccccc3Oc3ccc(Cl)cc32)CC1 [2-chloro-11-(4-methyl-1-piperazinyl)-dibenz[b,f][1,4]oxazepine]

Compound: O=C1Nc2ccccc2Oc2ccc(Cl)cc21 [2-chloro-dibenz[b,f][1,4]oxazepin-11(10H)-one]
Solubility in water [1]: extremely insoluable
Concentration at which crystallization of hydrolysis product does not occur [6]: below 500 mcg/ml
Toxicity [7]: nontoxic
